Measured values published in patent US5183896A, “Derivatives of 1,2,5,6-tetrahydropyridin-3-carboxaldehyde oxime” (Roussel Uclaf, priority 1990, dated 1993).
Where two headings read alike, the source gives them in different places.

Experiments:
[1] = test system: patients who have a memory deficiency; conditions: intravenous route; cited from earlier work
[2] = test system: central cholinergic system; conditions: cited from earlier work
Solubility = assay type: physicochemical; conditions: for solubility in water: H2O
[3] = test system: isolated ileum of a guinea pig; assay: Test of the isolated ileum of a guinea pig (agonist contraction); conditions: Cavia porcellus, Tyrode solution, 37° C., read-out: pD2 (negative logarithm of the dose which produces 50% of the maximum effect) (converted)
Protocol: 1Test of the isolated ileum of a guinea pig
Ileum fragments are removed from a guinea-pig killed by decapitation. The isolated ileum is placed in 10 cm^3 of Tyrode solution at 37° C. and aerated by a mixture of oxygen (95%) and carbon dioxide (5%). Contractions caused by the products are recorded using a sensor connected to a polygraph. The products under test are added, at concentrations comprised between 1.10^-3 M and 1.10^-8 M/1.
The products showing a contracturating effect are tested relative to atropine and hexamethonium in order to establish whether the activity is of "muscarinic" or "nicotinic" type.
The agonist activity is expressed in pD2 (negative logarithm of the dose which produces 50% of the maximum effect).

[4] = test system: male mice (CD1 Charles Rivers); assay: Duration of hypothermic action: variations in body temperature; assay type: in vivo, mouse
Protocol: (§1) The test is carried out on male mice (CD1 Charles Rivers) weighing 25 to 30 g, which have gone without food for 6 hours.
(§2) The body temperature is noted using a thermocouple placed about […] inside the rectum and connected to an electrical temperature recorder.
(§3) The products are administered by oral or sub-cutaneous route and the temperatures are noted at 0 and 30 minutes, 1 hour, 2 hours and 2 and a half hours after treatment.
(§4) The degree of hypothermia is evaluated as the difference between the treated animals and the control animals and the dose necessary to reduce the body temperature by 1° C. is determined.
The duration of action of the products is determined by using doses which can reduce the temperature by 1.5° C. to 1.7° C.

[5] = test system: male mice (CD1 Charles Rivers); assay: Diarrheic activity, oral; assay type: in vivo, mouse
Protocol: The test is carried out on male mice (CD1 Charles Rivers) weighing 25 to 30 g, which have gone without food for 6 hours. The product dissolved at 5% in methocel is administered by oral route, using a probang.
The control animals receive only the excipient.
After treatment, the animals are put separately in cages. The bottoms of the cages are covered with blotting paper and are observed at 30, 60, 120 and 180 minute intervals.
The absorbent sheets of paper are changed after each observation.
The consistency of the faeces is evaluated according to the method of Randall and Baruth (Arch. Int. Pharmacodyn. 220, 94, 1976) by following the scale of the following values:
1: slightly soft feces with or without moist ring,
2: slightly soft feces with presence of a well-defined moist circle,
3: soft feces with presence of a large moist circle,
4 feces without consistency with presence of a very large moist circle.
For each product, the dose was noted which caused diarrhoea in 50% of the animals according to the method of Miller and Tainter (Proc. Soc. Exp. Biol. Med., 57 261, 1944).

[6] = Acute toxicity, oral, mortality over 7 days; conditions: mouse, in vivo, male mice
Protocol: The test is carried out on male mice (CD1 Charles Rivers) weighing 22 to 24 g, which have gone without food for 16 hours. […] The mortality is noted over the 7 days following the treatment.

[7] = test system: male mice (CD1 Charles Rivers); assay: Duration of hypothermic action: variations in body temperature; assay type: in vivo, mouse; conditions: 180 min
[8] = test system: male mice (CD1 Charles Rivers); assay: Hypothermic activity: dose reducing body temperature by 1° C.; assay type: in vivo; conditions: Mus musculus, read-out: Effective dose (-1° C.)
Protocol: as §1, §2, §3, §4

| solubility in 2N HCl (Solubility) | solubility in 2N NaOH (Solubility) | solubility in water (Solubility) | Compound | EC50 [3] [µM] | DE50 (dose which caused diarrhoea in 50% of the animals) [5] [mg/kg] | ED (-1 C body temperature) ([8]; SC route) [mg/kg] | ED (-1 C body temperature) ([8]; oral route) [mg/kg] | other results |
| --- | --- | --- | --- | --- | --- | --- | --- | --- |
| soluble | insoluble | soluble | CON=CC1=CCCN(C(=O)OCC(=O)N2CCN(C)CC2)C1 [Example 5, (4 methyl-1-piperazinyl)-carbonylmethyl 3-(methoxyiminomethyl)-1,2,5,6-tetrahydropyridine-1-carboxylate] | – | – | – | – | – |
| insoluble | insoluble | insoluble | CCN(CC)C(=O)COC(=O)N1CCC=C(C=NOC)C1 [Example 2, (diethylaminocarbonyl) methyl 3-(methoxyiminomethyl)-1,2,5,6-tetrahydropyridine-1-carboxylate] | – | – | – | – | – |
| insoluble | insoluble | insoluble | CON=CC1=CCCN(C(=O)OCC(=O)N2CCCCC2)C1 [Example 4, (1-piperidinylcarbonyl)-methyl 3-(methoxyiminomethyl)-1,2,5,6-tetrahydropyridine-1-carboxylate] | – | – | – | – | – |

The next lines start with the molecule.

| Compound | solubility in 2N HCl (Solubility) | solubility in 2N NaOH (Solubility) | solubility in water (Solubility) | EC50 [3] [µM] | DE50 (dose which caused diarrhoea in 50% of the animals) [5] [mg/kg] | ED (-1 C body temperature) ([8]; SC route) [mg/kg] | ED (-1 C body temperature) ([8]; oral route) [mg/kg] | other results |
| --- | --- | --- | --- | --- | --- | --- | --- | --- |
| COC(=O)C1=CCCN(C)C1 [arecoline] | – | – | – | – | – | – | – | effect on patients who have a memory deficiency [1]: positive effect; duration of action ([2]; in vivo): short-term action; activity by oral route ([2]; oral route): very weak activity by oral route |
| C=CCN(CC=C)C(=O)COC(=O)N1CCC=C(C=NOC)C1 [Example 3, (di(2-propenyl)-aminocarbon-yl)-methyl 3-(methoxyiminomethyl)-1,2,5,6-tetrahydropyridine-1-carboxylate] | insoluble | insoluble | insoluble | > 100 | > 50 | 8 | 9 | Variation in body temperature ([4]; 12 mg/kg, sc, 30 min): -0.9 °C; Variation in body temperature ([4]; 12 mg/kg, sc, 60 min): -1.6 °C; Variation in body temperature ([4]; 12 mg/kg, sc, 120 min): -0.6 °C; Variation in body temperature ([4]; 15 mg/kg, os, 0 min): +0.1 °C; Variation in body temperature ([4]; 15 mg/kg, os, 30 min): -1.3 °C; Variation in body temperature ([4]; 15 mg/kg, os, 60 min): -1.7 °C; Variation in body temperature ([4]; 15 mg/kg, os, 120 min): -0.5 °C; LD50 at 168 h [6]: 500 mg/kg; Variation in body temperature ([7]; 15 mg/kg, os): +0.1 °C |
| COC(=O)C1=CCCN(C)C1 [Arecoline, HBr, reference compound] | – | – | – | 0.126 | 35 | 3 | 190 | Variation in body temperature ([4]; 3.5 mg/kg, sc, 0 min): -0.1 °C; Variation in body temperature ([4]; 3.5 mg/kg, sc, 30 min): -1.5 °C; Variation in body temperature ([4]; 3.5 mg/kg, sc, 60 min): -0.1 °C; Variation in body temperature ([4]; 3.5 mg/kg, sc, 120 min): +0.2 °C; Variation in body temperature ([7]; 3.5 mg/kg, sc): +0.2 °C |
